Experimental data taken from US20080075796A1, “Compositions and Methods for Controlling Insects” (TyraTech, Inc., priority 2003, published 2008).

How the values were obtained:
[1] = system: head lice Pediculus humanus capitus; experiment: Pesticidal effect on head lice; type: in vivo; settings: time to kill 100% of the lice, dissolved in water
Procedure: (§1) Live adult head lice Pediculus humanus capitus are collected from female and male children between the age of about 4 and 11 living in the Karmos area, Alexandria, Egypt. The insects are collected using fine-toothed louse detector comb and pooled together. The collected lice are kept in dishes and used in the studies within about 30 minutes of their collection.
(§2) Various concentrations of the compositions being tested are prepared in water To allow the pesticidal effect of these compositions to be compared to that of a commercially available lice-killing agent, ivermectin, is dissolved in water. About 1 ml of each concentration of the compositions are applied to a dish, about 1 ml of the ivermectin solution is applied to a dish, and about 1 ml of water is applied to a control dish. About 10 adult head lice are introduced to each dish.
(§3) Treated and control dishes are kept under continuous observation and LT100 is observed. LT refers to the time required to kill a given percentage of insects; thus, LT100 refers to the time required to kill 100% of the lice. Head lice is considered dead if no response to a hard object is found.

Carpenter ants [2] = experiment: Repellent effect on carpenter ants (treated filter paper); type: in vivo; settings: DEET in concentrations of about 5 to 10%
Procedure: (§4) Adult insect are randomly selected for testing the repellent effect of compositions and are not individually marked. About 5 insects per replicate are used. About 3 replicates are used for each treatment. Untreated control tests are included with only solvent (acetone) application to an equal sized population/replications, held under identical conditions. A filter paper (about 80 cm^2) is treated with the composition (about 100 mg in […] acetone). After about 3 min of air drying, the filter paper is placed in a dish and repellency against insects is performed. Insects are released to the dish, one insect at a time at the far end of the dish. Using one or more stopwatches, the time spent on either the filter paper or the untreated surface of the dish is recorded up to about 300 seconds. Repellency ratio (RR) is calculated as follows: RR=[(time on control surface−time on treated surface)/total time of test]. If RR>0 then the composition is considered to have a repellant effect, that is to say, an effect, wherein more insects are repelled away from treated surface than the control surface; if RR<0 then the composition is considered not to have a repellant effect.
The repellent effect of various plant essential oils is tested by treating a filter paper with the test oils. […] The repellency is determined as described above, in Example 14. […]

red ants = experiment: Repellent effect on red ants (visits to treated paper disk); type: in vivo; settings: for number of trips by red ants to treated paper disk: 100%
Procedure: Repellent effect of various compositions containing plant essential oils on red ants is tested in the following manner. A paper disk is treated with about 200 μl of each composition and placed in a dish. An untreated paper disk is placed in a control dish. Also, a paper disk is treated with about 200 μl 100% DEET and placed in a dish to compare the repellant effect of the compositions to that of DEET. Red ants are introduced into each dish. Insect behavior and number of visits to the treated paper disk are monitored for about 5 minutes. The number of visits by a red ant to the paper disk is recorded.
Residuality, with regard to pesticidal effect and repellent effect, is tested by treating a paper disk with the composition being tested, keeping the treated paper disk under laboratory conditions for a predetermined period of time (e.g., 0 min, 6 hours, 1 day, 3 days, 5 days, 7 days), and exposing red ants to the treated paper disk in the above described manners.

Carpenter ants [3] = experiment: Repellent effect on carpenter ants (treated filter paper); type: in vivo
Procedure: as §4
(§5) The repellent effect of various plant essential oils is tested by treating a filter paper with the test oils. After about five minutes at room temperature, the paper is placed in a dish and ants are introduced one at a time. The repellency is determined as described above, in Example 14. Oils are tested alone. Additionally, oils are mixed to form compositions, which are then tested.
For purposes of comparison to the repellent effect of various compositions made of various plant essential oils, the repellency of an insect control agent, the commercial repellent 29% DEET, which may be purchased under the name, REPEL® (Wisconsin Pharmacal Company, Inc, Jackson, Wyo.), is measured against Carpenter ants by treating a filter paper with the 29% DEET. After about five minutes at room temperature, the paper is placed in a dish and ants are introduced one at a time. The repellency is determined as described above, in Example 14.
as §5, with “of commercial repellent DEET and” for “of”

[4] = system: head lice Pediculus humanus capitus; experiment: Pesticidal effect on head lice (LT100); type: in vivo; settings: about 1 ml in dish, about 10 adult head lice
Procedure: as §1, §2, §3

[5] = system: Drosophila melanogaster tyramine receptor (TyrR), SEQ ID NO: 2; experiment: Receptor-specific binding of 3H-tyramine in Schneider cells transfected with TyrR; settings: whole cells, FIG. 1
Source text: Tyramine receptor is amplified from Drosophila melanogaster head cDNA phage library GH that is obtained through the Berkeley Drosophila Genome Project (Baumann, A., 1999, Drosophila melanogaster mRNA for octopamine receptor, splice variant 1B NCBI direct submission, Accession AJ007617). The nucleic acid sequence and the peptide sequence of TyrR are set forth in SEQ ID NO: 1 and SEQ ID NO: 2, respectively. Phage DNA is purified from this library using a liquid culture lysate. (Baxter, et al., 1999, Insect Biochem Mol Biol 29, 461-467). Briefly, oligonucleotides that are used to amplify the open reading frame of the Drosophila tyramine receptor (TyrR) (Han, et al., 1998, J Neurosci 18, 3650-3658; von Nickisch-Rosenegk, et al., 1996. Insect Biochem Mol Biol 26, 817-827) consist of the 5′ oligonucleotide: 5′[…] 3′ (SEQ ID NO: 7) and 3′ oligonucleotide: 5′taatctaga[…] […]
Cells transfected with the tyramine receptor (about 1×10^6 cells/ml) are cultured in each well of a multi-well plate. […] Solubilized cells are transferred into about 4 ml Liquid Scintillation Solution (LSS) and vigorously vortexed for about 30 sec before counting the radioactivity using a Liquid Scintillation β-counter (Beckman, Model LS1801) (LSC).
With reference to FIG. 1, receptor specific binding data is expressed as fmol specific binding per 1×10^6 cells and measured as a function of ^3H-tyramine concentration. […]

[6] = system: untransfected Schneider cells; experiment: Response of untransfected Schneider cells to tyramine; type: binding, Drosophila; settings: concentration as high as about 100 μM
control Schneider cells = experiment: Intracellular Ca2+ mobilization in control Schneider cells; type: cell-based, Drosophila; settings: FIG. 22
Procedure: Intracellular calcium ion concentrations ([Ca^2+]i) are measured by using the acetoxymethyl (AM) ester of the fluorescent indicator fura-2 (Enan, et al., Biochem. Pharmacol vol 51, 447-454). In this study, cells expressing tyramine receptor are grown under standard conditions. A cell suspension is prepared in assay buffer (140 mM NaCL, 10 mM HEPES, 10 mM glucose, 5 mM KCl, 1 mM CaCl2, 1 mM MgCl2) and cell number adjusted to about 2×10^6 cells per ml. Briefly, about 1.0 ml cell suspension (about 2×10^6 cells) is incubated with about 5 μM Fura 2/AM for about 30 min at about 28° C. After incubation, the cells are pelleted at about 3700 rpm for about 10 sec at room temperature and then resuspended in about 1.5 ml assay buffer. [Ca^2+]i changes are analyzed in spectrofluorometer in the presence and absence of test chemicals. Excitation wave lengths are about 340 nm (generated by Ca^2+-bound fura-2) and about 380 nm (corresponding to Ca^2+-free fura-2). The fluorescence intensity is monitored at an emission wave length of about 510 nm. No absorbance of fluorescence artifacts are observed with any of the compounds used. The ratio of about 340/380 nm is calculated and plotted as a function of time.
Changes in intracellular Ca^2+ levels are calculated based on the difference between the 340/380 fluorescence ratios before and after approximately 150 seconds of the treatment.

Molecule: ivermectin [listing 1 of 2 here]
- LT100 [1]: 5 min

Molecule: CCN(CC)C(=O)c1cccc(C)c1 [DEET]
- repellency (Carpenter ants [2]): no signs of repellency
- number of trips by the red ants to the treated paper disks (red ants; 0 min after treatment of disk): 0
- residuality of repellent effect (red ants; 100% DEET, in words): begins to loose potency after 1 day
- number of trips by red ants to treated paper disk (red ants; 0 min after treatment, about 5 minutes observation): 0
- number of trips by red ants to treated paper disk (red ants; 6 hours after treatment): 0
- number of trips by red ants to treated paper disk (red ants; 1 day after treatment): 1
- number of trips by red ants to treated paper disk (red ants; 3 days after treatment): 2
- number of trips by red ants to treated paper disk (red ants; 5 days after treatment): 2
- number of trips by red ants to treated paper disk (red ants; 7 days after treatment): 2
- number of trips by the red ants to the treated paper disks (red ants; 6 hours after treatment of disk): 0
- number of trips by the red ants to the treated paper disks (red ants; 1 day after treatment of disk): 1
- number of trips by the red ants to the treated paper disks (red ants; 3 days after treatment of disk): 2
- number of trips by the red ants to the treated paper disks (red ants; 5 days after treatment of disk): 2
- number of trips by the red ants to the treated paper disks (red ants; 7 days after treatment of disk): 2
- Sec on T (Carpenter ants [3]; 5% DEET, Day 0): 282 (10) Sec
- Sec on T (Carpenter ants [3]; 10% DEET, Day 0): 260 (6) Sec
- sec. on T surface (Carpenter ants [3]; 29% DEET (REPEL), Day 0): 02.4 s
- repellency (Carpenter ants [3]; DEET about 5 to 10%, in words): no signs of repellency

Molecule: ivermectin [listing 2 of 2 here]
- LT100 (time required to kill 100% of the lice) [4]: 5 min

Molecule: NCCc1ccc(O)cc1 [Tyramine, tyramine]
- 3H-tyramine concentration at which maximum specific binding occurs [5]: about 5 nM
- response of untransfected cells [6]: do not respond
- mobilization of Ca2+ in control cells (control Schneider cells): induce mobilization of Ca^2+
